Our source for the phosphorylation of glucose, Km and kcat values is publication PMC9550789, “Identification and biochemical characterization of a novel N-acetylglucosamine kinase in Saccharomyces cerevisiae” (Scientific Reports, 2022).

The target of data set [1] is T1, Glk1 (Saccharomyces cerevisiae, UniProt P17709).
T1 sequence (P17709 2-500): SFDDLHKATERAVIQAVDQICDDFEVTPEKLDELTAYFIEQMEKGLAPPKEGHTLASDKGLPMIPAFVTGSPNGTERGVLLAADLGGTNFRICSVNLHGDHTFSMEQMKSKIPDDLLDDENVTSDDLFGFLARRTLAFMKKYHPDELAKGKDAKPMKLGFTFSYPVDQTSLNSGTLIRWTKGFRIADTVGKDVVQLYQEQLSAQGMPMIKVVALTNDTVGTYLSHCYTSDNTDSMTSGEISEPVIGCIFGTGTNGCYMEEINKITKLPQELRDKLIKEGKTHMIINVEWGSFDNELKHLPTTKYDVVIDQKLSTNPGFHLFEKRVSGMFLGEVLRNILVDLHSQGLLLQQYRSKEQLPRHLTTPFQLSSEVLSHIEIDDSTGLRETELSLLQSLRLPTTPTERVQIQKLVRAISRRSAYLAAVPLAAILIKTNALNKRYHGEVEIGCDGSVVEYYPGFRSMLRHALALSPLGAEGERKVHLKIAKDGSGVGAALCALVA
In words: phosphorylation of glucose. It counts as biochemical. Particulars: sugar phosphorylation with ATP; details in supplement.

Data set [2] deals with T2, Emi2 (Saccharomyces cerevisiae, UniProt Q04409).
T2 sequence (Q04409 2-500): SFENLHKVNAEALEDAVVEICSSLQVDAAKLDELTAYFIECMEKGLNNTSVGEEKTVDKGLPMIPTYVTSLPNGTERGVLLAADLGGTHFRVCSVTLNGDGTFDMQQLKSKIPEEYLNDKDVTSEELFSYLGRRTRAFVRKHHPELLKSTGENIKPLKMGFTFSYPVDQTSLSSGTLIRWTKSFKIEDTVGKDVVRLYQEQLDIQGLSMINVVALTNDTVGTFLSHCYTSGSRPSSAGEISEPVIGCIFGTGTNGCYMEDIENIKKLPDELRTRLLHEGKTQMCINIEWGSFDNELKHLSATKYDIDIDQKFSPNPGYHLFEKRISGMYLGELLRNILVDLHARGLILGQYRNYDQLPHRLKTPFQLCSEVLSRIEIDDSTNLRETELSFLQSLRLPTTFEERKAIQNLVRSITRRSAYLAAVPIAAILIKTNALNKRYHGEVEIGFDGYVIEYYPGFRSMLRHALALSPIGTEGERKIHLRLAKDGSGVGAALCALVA
In words: phosphorylation of glucose. Particulars: sugar phosphorylation with ATP; details in supplement. The data set is classed as biochemical.

Data set [3] deals with T3, Hxk2 (Saccharomyces cerevisiae, UniProt P04807).
T3 sequence (P04807 2-486): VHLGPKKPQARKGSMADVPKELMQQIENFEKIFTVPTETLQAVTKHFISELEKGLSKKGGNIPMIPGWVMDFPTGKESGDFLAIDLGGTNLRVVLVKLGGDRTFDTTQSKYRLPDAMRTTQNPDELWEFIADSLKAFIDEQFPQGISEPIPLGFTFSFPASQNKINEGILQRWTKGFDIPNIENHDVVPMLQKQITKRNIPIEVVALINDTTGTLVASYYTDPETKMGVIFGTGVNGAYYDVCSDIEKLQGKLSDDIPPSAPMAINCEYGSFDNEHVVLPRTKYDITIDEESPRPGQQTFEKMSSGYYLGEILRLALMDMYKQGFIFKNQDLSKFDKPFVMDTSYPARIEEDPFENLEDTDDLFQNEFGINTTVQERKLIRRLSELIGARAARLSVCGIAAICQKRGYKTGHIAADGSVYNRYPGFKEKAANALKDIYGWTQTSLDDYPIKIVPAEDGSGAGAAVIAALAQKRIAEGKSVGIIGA
In words: phosphorylation of glucose. The following applies: sugar phosphorylation with ATP; details in supplement. It counts as biochemical.

Data set [4] deals with T4, Hxk1 (Saccharomyces cerevisiae, UniProt P04806).
T4 sequence (P04806 1-485): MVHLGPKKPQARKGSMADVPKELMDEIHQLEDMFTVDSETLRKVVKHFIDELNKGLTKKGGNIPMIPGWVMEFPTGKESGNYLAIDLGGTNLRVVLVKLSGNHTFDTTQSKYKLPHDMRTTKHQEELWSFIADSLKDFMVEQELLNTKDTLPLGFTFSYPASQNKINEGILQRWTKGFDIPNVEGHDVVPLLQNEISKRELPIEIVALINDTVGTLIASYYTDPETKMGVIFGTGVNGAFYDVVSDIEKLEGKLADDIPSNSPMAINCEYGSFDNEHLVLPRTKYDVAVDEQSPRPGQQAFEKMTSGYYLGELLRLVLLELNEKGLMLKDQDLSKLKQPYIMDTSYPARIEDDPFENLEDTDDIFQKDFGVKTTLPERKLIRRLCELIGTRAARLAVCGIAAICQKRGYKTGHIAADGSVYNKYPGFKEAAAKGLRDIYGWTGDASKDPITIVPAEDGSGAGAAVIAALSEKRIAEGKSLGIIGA
In words: phosphorylation of glucose. The following applies: sugar phosphorylation with ATP; details in supplement. It counts as biochemical.

Substrate in data set [5]: Nc1ncnc2c1ncn2[C@@H]1O[C@H](COP(=O)(O)OP(=O)(O)OP(=O)(O)O)[C@@H](O)[C@H]1O
Put plainly: pyruvate kinase / lactate dehydrogenase coupled assay, ADP formation. The data set is classed as biochemical, Saccharomyces cerevisiae. The following applies: GlcNAc as sugar substrate (concentration not given).

Consider `OC[C@H]1OC(O)[C@H](O)[C@@H](O)[C@@H]1O` (stereo partly drawn) [glucose], for which the phosphorylation of glucose entry in data set [1], in data set [2], in data set [3] and in data set [4] was “all these hexokinases clearly exhibited the activity for Glc” each time.

B1: Ngk1 (YLR446Wp) (Saccharomyces cerevisiae S288C) (protein)
chain: MTIESTLARELESLILPADSIVNVVDQFQEELLSRLQTNTISMLPQCLVPDKRSRWNPEDKILTIDFGGTRLKFAIISLPQIVIEYNDAFELTYNIVDSNFFNQIIYTICTRLAANGYIKKKNESSEASKFFVSVTFSFPLNPEGEVVAMGKGFVMTDTLQGSTVKQLIQSSFHRIISENIEEFFCTMNVCHVINDAIAVSLTSKFICENDSISLIIGTGTNACFEVPYGYLPPFKRDALRETLPSSYNKETLNFKHVLINSEIGFIGKNVIALQPFDIHGAISYEMPLECVTSGKWLPLSLKNILLQYNIIPKNFPVEFNGELVCQLAEDCTNAWFENEHYALICQIARLLIKRAAFYVAAIVQAIDIITGCKNYNFIHIGYVGSFLHNSNFYREQIKYYSSIHIKLQFLNHSNLLGAAIATYLNKSDNQVQ
notes: full-length ORF, 433 residues, about 50 kDa predicted, N-terminal His6-tag (pCold II), E. coli BL21 (DE3), HisTrap purified; tag removal not mentioned
Turning to B1, in data set [5], the Michaelis-Menten constant (Km) is 1200 µM and the kcat is 3.4 s⁻¹.

Usually Km stands for the concentration of substrate that gives half-maximal velocity. For orientation: kcat means the number of substrate molecules converted per active site and unit of time at saturation.
